# Measured values reported in patent publication US20140017157A1, “ANTITUMOR AGENT COMPRISING CARBON DIOXIDE AS AN ACTIVE INGREDIENT” (NEOCHEMIR INC., priority 2011, published 2014).
# Columns and labels:
# [1] = tested on: cell line NaraH; assay: Combined effects with a chemotherapeutic agent against the implanted tumors in nude mice (Example 4); assay type: in vivo; settings: t-test; for tumor volume compared to the control group: adriamycin 6 mg/kg, CO2 twice-weekly; for Significance level for control group (tumor volume): P
# Experimental: (§1) A cell line NaraH, which is the cell line of a malignant soft tissue tumor, was subcutaneously implanted in the back of the 17 nude mice of 5 weeks old at 12 million cells/mouse. After the implantation, body weight and tumor volume of each nude mouse were measured. The mice were divided into the following 3 groups so that the variation in tumor volumes and body weights are reduced. The treatment according to Example 1 was started on the 3rd day after the implantation (Table 2).
# (§2) The treatment was done for 9 days. Tumor volume was calculated by the following equation: (Maximum diameter of implanted tumor mass)×(Minimum diameter of implanted tumor mass)×(Minimum diameter of implanted tumor mass)×½. The measurement of tumor volume was done on the 3rd, 7th and 9th day after tumor implantation.
# [2] = tested on: MDA-MB-231; assay: Combined effects with a chemotherapeutic agent against the implanted malignant breast carcinoma in nude mice (Example 5); assay type: in vivo; settings: t-test; for tumor volume compared to the control group: 15th day after tumor implantation (so in the source), adriamycin 4 mg/kg; for Significance level for control group (tumor volume): P, 15th day, Table 6
# Experimental: (§3) MDA-MB-231, a cell line of a malignant breast carcinoma, was subcutaneously implanted in the back of the 18 nude mice of 5 weeks old at 12 million cells/mouse. On the 53rd day after the implantation, body weight and tumor volume of each nude mouse were measured. The mice were divided into the following 4 groups so that the variation in tumor volumes and body weights are reduced. The treatment was done according to Example 1 (Table 5).
# The starting date of the test was defined as the 0 day and each treatment was done on the 1st, 5th, 8th, 12th and 15th day. Tumor volume was calculated by the following equation: (Maximum diameter of implanted tumor mass)×(Minimum diameter of implanted tumor mass)×(Minimum diameter of implanted tumor mass)×½. The measurement of tumor volume was done on the 8th and 15th day after tumor implantation. The measurement of body weights of the nude mice as an indication of a side effect was done on the 8th and 15th day after tumor implantation.
# [3] = Body weight of tumor-bearing nude mice as an indication of a side effect (Example 5); assay type: in vivo; settings: FIG. 12; for weight reduction as an indicator of a side effect compared to the control group: adriamycin 4 mg/kg
# Experimental: as §3, with “5). […] The starting date of the test was defined as the 0 day and each treatment was done on the 1st, 5th, 8th, 12th and 15th day. Tumor volume was calculated by the following equation: (Maximum diameter of implanted tumor mass)×(Minimum diameter of implanted tumor mass)×(Minimum diameter of implanted tumor mass)×½. The measurement of tumor volume was done on the 8th and 15th day after tumor implantation. The measurement of body weights of the nude mice as an indication of a side effect was done on the 8th and 15th day after tumor implantation.” for “5).”
# [4] = tested on: breast carcinoma cell line MDA-MB-231; assay: Antitumor effects (4) of a single dose against the implanted tumors in nude mice (Example 7); assay type: in vivo; settings: 3rd day after starting of the treatment; single treatment (CO2 10 minutes; adriamycin 3 mg/kg); FIG. 14
# Experimental: (§4) A breast carcinoma cell line MDA-MB-231, which is […], was subcutaneously implanted in the back of the 23 nude mice of 5 weeks old at 20 million cells/mouse. On the 18th day after the implantation, body weight and tumor volume of each nude mouse were measured. The mice were divided into the following 4 groups so that the variation in tumor volumes and body weights are reduced. The treatment was done according to Example 1 (Table 8), but only once.
# Tumor volume was calculated by the following equation: (Maximum diameter of implanted tumor mass)×(Minimum diameter of implanted tumor mass)×(Minimum diameter of implanted tumor mass)×½. The measurement of tumor volume was done on the 3rd day after starting of the treatment.
# [5] = Body weight as an indicator of the side effect after a single dose (Example 7); assay type: in vivo, nude mice; settings: single treatment (CO2 10 minutes; adriamycin 3 mg/kg); FIG. 15
# Experimental: as §4
# [6] = tested on: MFH cell line NaraH; assay: Antitumor effects (1) against the implanted tumors in nude mice (Example 1); assay type: in vivo
# Experimental: An MFH cell line NaraH, which is the cell line of a malignant soft tissue tumor, was subcutaneously implanted in the back of the 10 nude mice of 5 weeks old at 12 million cells/mouse. After the implantation, body weight and tumor volume of each nude mouse were measured. The mice were divided into two groups so that the variation in tumor volumes and body weights are reduced. That is, one is carbon dioxide absorption group and the other is control group treated in the same way as carbon dioxide absorption group but without the carbon dioxide absorption treatment. A treatment was started on the 2nd day after the implantation. After anesthetizing all groups by ether inhalation, the treatment was done according to the patent document 7, that is, an absorption aid for carbon dioxide comprising 93.77% by mass of water, 5% by mass of glycerin, 0.65% by mass of carbomer, 0.15% by mass of sodium alginate, 0.15% by mass of sodium dihydrogen phosphate, 0.18% by mass of sodium hydroxide and 0.10% by mass of methylparaben was applied 2 mm thick to the dorsal skin wherein a tumor has been implanted. […] Tumor volume was calculated by the following equation: (Maximum diameter of implanted tumor mass)×(Minimum diameter of implanted tumor mass)×(Minimum diameter of implanted tumor mass)×[…]. […]
# [7] = tested on: MFH cell line NaraH; assay: Antitumor effects (2) against the implanted tumors in nude mice (Example 2); assay type: in vivo
# Experimental: An MFH cell line NaraH, which is the cell line of a malignant soft tissue tumor, was subcutaneously implanted in the back of the 12 nude mice of 5 weeks old at 12 million cells/mouse. After the implantation, body weight and tumor volume of each nude mouse were measured. The mice were divided into 2 groups so that the variation in tumor volumes and body weights are reduced. That is, one is carbon dioxide absorption group and the other is control group treated in the same way as carbon dioxide absorption group but without the carbon dioxide absorption treatment. The treatment according to Example 1 was started on the 3rd day after the implantation. The carbon dioxide absorption was done twice-weekly and the treatment was done for 14 days. The carbon dioxide absorption was done a total of 3 times. Tumor volume was calculated by the following equation: (Maximum diameter of implanted tumor mass)×(Minimum diameter of implanted tumor mass)×(Minimum diameter of implanted tumor mass)×½. The measurement of tumor volume was done on the 3rd, 7th, 10th and 14th day after the tumor implantation.
# [8] = tested on: cell line NaraH; assay: Antitumor effects (3) against the implanted tumors in nude mice, two regimens (Example 3); assay type: in vivo; settings: t-test
# Experimental: as §1, with “An MPH cell” for “A cell”, “the 20” for “the 17”, “volume” for “volume of each nude mouse”, “(Table 1).” for “(Table 2).”
# as §2, with “16” for “9”, “7th, 10th, 14th” for “7th”, “16th” for “9th”
# [9] = tested on: cell line LM-8; assay: Effects against the implanted highly lung-metastatic tumors in nude mice (Example 8); assay type: in vivo
# Experimental: A cell line LM-8, which is the cell line of a highly lung-metastatic tumor, was subcutaneously implanted in the back of the 11 nude mice of 5 weeks old at 1 million cells/mouse. On the 3rd day after the implantation, body weight and tumor volume of each nude mouse were measured. The mice were divided into two groups so that the variation in tumor volumes and body weights are reduced. That is, one is carbon dioxide absorption group (6 mice) and the other is control group (5 mice) treated in the same way as the carbon dioxide absorption group but without the carbon dioxide absorption treatment. The treatment according to Example 1 was started on the 3rd day after the implantation. The carbon dioxide absorption was done three times-weekly and the treatment was done for 14 days. The carbon dioxide absorption was done a total of 6 times. Tumor volume was calculated by the following equation: (Maximum diameter of implanted tumor mass)×(Minimum diameter of implanted tumor mass)×(Minimum diameter of implanted tumor mass)×½. The measurement of tumor volume was done on the 3rd, 7th, 10th, 14th, 17th and 21st day after the tumor implantation. On the 21st day after the tumor implantation, a lung of each mouse was isolated and the lung weight was measured. The cross-sections of the lung, where the metastasized tumor have been stained by hematoxylin and eosin, were chosen at random and a proportion of the stained area in the cross-section was analyzed by using an image analyzing software ImageJ to obtain the lung metastasis rate of the tumor.
# [10] = 7th day after tumor implantation
# [11] = 9th day after tumor implantation
# [12] = 7th day after tumor implantation, Table 3
# [13] = 9th day after tumor implantation, Table 4
# [14] = 14 days treatment, twice-weekly CO2 absorption
SMILES,"tumor volume compared to the control group [1, 10]","tumor volume compared to the control group [1, 11]","Significance level for control group (tumor volume) [1, 12]","Significance level for control group (tumor volume) [1, 13]",tumor volume compared to the control group [2],Significance level for control group (tumor volume) [2],weight reduction as an indicator of a side effect compared to the control group [3],tumor volume relative to initial volume [4],body weight reduction as an indicator of the side effect [5],other results
"COc1cccc2c1C(=O)c1c(O)c3c(c(O)c1C2=O)C[C@@](O)(C(=O)CO)C[C@@H]3O[C@H]1C[C@H](N)[C@H](O)[C@H](C)O1 [chemotherapeutic agent, adriamycin, reference compound]",statistically significantly reduced,statistically significantly reduced,P < 0.005,P < 0.05,statistically significantly reduced,P < 0.005,statistically significant,not changed,reduced,significance level (P) of weight reduction compared to the carbon dioxide-alone group [3]: < 0.05; weight reduction compared to the carbon dioxide-alone group [3]: Significant weight reduction was found
O=C=O [carbon dioxide],statistically significantly reduced,statistically significantly reduced,P < 0.001,P < 0.05,statistically significantly reduced,P < 0.001,significant weight reduction was not found,reduced to two-thirds of initial volumes,not observed,"tumor volume compared to the control group ([6]; 16th day after tumor implantation, transdermal CO2 absorption 10 minutes, twice-weekly, total of 4 times, t-test, FIG. 1): statistically significantly reduced; deaths during the experiment period [6, 14]: no deaths; tumor volume compared to the control group ([7]; 14th day after tumor implantation, twice-weekly, total of 3 times, t-test, FIG. 2): statistically significantly reduced; deaths during experimental period [7, 14]: no deaths; tumor volume compared to the control group ([8]; group of 5 times-weekly administration early in treatment (5 consecutive days from first day), FIG. 4): statistically significantly reduced; tumor volume compared to the control group ([8]; group of twice-weekly administration, treatment 16 days, FIG. 3): statistically significantly reduced; lung weights compared to the control group ([9]; 21st day after tumor implantation, CO2 three times-weekly, total of 6 times, t-test, FIG. 16): statistically significantly reduced; lung metastasis rates compared to the control group ([9]; 21st day after tumor implantation, proportion of stained area in lung cross-section, t-test, FIG. 17): statistically significantly reduced; significance level (P) of lung weight reduction compared to the control group ([9]; 21st day, t-test, FIG. 16): < 0.05; significance level (P) of lung metastasis rate reduction compared to the control group ([9]; 21st day, t-test, FIG. 17): < 0.05; deaths during the experiment period ([9]; CO2 three times-weekly for 14 days): no deaths; subcutaneously-implanted tumor volumes compared to the control group ([9]; CO2 three times-weekly, total of 6 times, t-test, FIG. 18): statistically significantly reduced; significance level (P) of subcutaneously-implanted tumor volume reduction compared to the control group ([9]; t-test, FIG. 18): < 0.05"
